{
  "source": "patent US20250057162A1",
  "about": "“FUNGICIDAL COMPOSITIONS” (SYNGENTA CROP PROTECTION AG, priority 2021, published 2025)",
  "origin": "cited, not measured here",
  "tested_on": "Mycosphaerella graminicola (Septoria tritici)",
  "data": [
    {"smiles": "COc1ccnc(C(=O)N[C@@H](C)C(=O)O[C@@H](C)C(c2ccc(F)cc2)c2ccc(F)cc2)c1OC(C)=O", "note": "[Florylpicoxamid, (1S)-2,2-bis(4-fluorophenyl)-1-methylethyl N-{[3-(acetyloxy)-4-methoxy-2-pyridyl]carbonyl}-L-alaninate]", "values": [
      {"measurement": "control of wheat leaf blotch disease (in words)", "value": "particularly effective"}
    ]}
  ]
}
